From publication PMC4226669, “Anti-cancer potency of tasquinimod is enhanced via albumin-binding facilitating increased uptake in the tumor microenvironment” (Oncotarget, 2014)

What was measured:
[1] = test system: human umbilical vein endothelial cells (HUVECs); experiment: 3D in vitro endothelial sprouting and tube formation assay; type: cell-based
Excerpt: A three-dimensional (3D) in vitro endothelial sprouting and tube formation assay was utilized to define the anti-angiogenic potency of tasquinimod vs. these metabolites. In this 3D assay, human umbilical endothelial cells (i.e., HUVECs) are initially grown on microcarrier beads and the cell coated beads embedded in fibrin gels with media conditioned by normal human lung fibroblasts. Under these 3D-conditions, endothelial cells “sprout” producing 3D neovessel tubes with patent lumen within one week, Figure 4A - left panel. When tasquinimod is added at the initiation to these 3D-cultures, sprouting of the endothelial cells is inhibited, Figure 4B-right panel, with the potency for such inhibition, expressed as an IC50 value (i.e., the concentration of drug which inhibits by 50% the endothelial sprouting) of 0.5 μM, Figure 4C. […] Using this 3D-HUVEC assay, the potency (i.e., expressed as IC50) of tasquinimod metabolites to inhibit endothelial sprouting was compared to tasquinimod. […] To further confirm that tasquinimod itself and not the carboxamide-N-demethylated metabolite is the active drug, the response to ketoconazole alone and in combination with tasquinimod was tested in the 3D-endothelial sprouting assay.
The 3-dimensional (3D) in vitro angiogenic sprouting and tube formation assay was used as described previously. This 3D-endothelial sprouting assay was conducted using a minimum of 5 replicate wells per drug dose per experiment, repeated 3 independent times using human umbilical vein endothelial cells (HUVECs; Lonza Walkersville, Inc.) with modification that 20 μL of 10X concentrated Dulbecco's Modified Eagle's Media/10%FCS media conditioned by confluent human primary lung fibroblasts (Lonza) diluted to 200 μL of growth factor supplemented EGM-2 media (Lonza) was used instead of fibroblast co-culture.

[2] = target: T1, bovine albumin (Bos taurus, UniProt P02769); experiment: Equilibrium dialysis binding to bovine albumin; settings: pH 7.4, equilibrium dialysis, read-out: equilibrium dissociation constant (Kd)
T1 construct: purchased Sigma
T1 sequence (P02769 25-607): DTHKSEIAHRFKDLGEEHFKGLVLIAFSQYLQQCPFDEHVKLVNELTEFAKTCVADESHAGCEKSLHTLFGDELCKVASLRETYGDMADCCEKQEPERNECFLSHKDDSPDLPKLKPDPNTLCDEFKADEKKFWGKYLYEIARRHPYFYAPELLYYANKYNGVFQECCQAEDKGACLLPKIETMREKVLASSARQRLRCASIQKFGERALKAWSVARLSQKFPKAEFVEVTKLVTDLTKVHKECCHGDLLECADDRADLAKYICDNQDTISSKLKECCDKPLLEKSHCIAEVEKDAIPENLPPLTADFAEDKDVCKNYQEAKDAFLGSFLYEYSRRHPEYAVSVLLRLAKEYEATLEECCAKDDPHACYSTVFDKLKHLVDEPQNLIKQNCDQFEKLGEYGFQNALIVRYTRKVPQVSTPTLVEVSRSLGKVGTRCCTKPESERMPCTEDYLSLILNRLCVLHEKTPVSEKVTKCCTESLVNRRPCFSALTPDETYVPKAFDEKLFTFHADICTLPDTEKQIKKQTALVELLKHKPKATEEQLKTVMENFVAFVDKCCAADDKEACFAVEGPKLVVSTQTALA
Description: To determine whether albumin is the tasquinimod binding protein in plasma, albumin was removed from human plasma using an albumin depletion kit (Thermo Scientific cat # 85160). The albumin depleted plasma was then tested for its protein binding as described above. The dissociation constant (kd) for tasquinimod binding was determined based upon equilibrium dialysis of a mixture of 4mg/ml of the species (i.e., human, bovine, and mouse) specific albumin obtained from Sigma with 2μM of ^14C-labeled tasquinimod in PBS pH 7.4 buffer using a 96-well equilibrium dialyzer™ (Harvard Apparatus, Holliston,MA).

[3] = target: human serum albumin (HSA) (Homo sapiens, UniProt P02768); experiment: Reversibility of albumin binding (dialysis against drug free HSA); settings: after 4 hours of dialysis, pH 7.4
human serum albumin (HSA), sequence (P02768 25-609): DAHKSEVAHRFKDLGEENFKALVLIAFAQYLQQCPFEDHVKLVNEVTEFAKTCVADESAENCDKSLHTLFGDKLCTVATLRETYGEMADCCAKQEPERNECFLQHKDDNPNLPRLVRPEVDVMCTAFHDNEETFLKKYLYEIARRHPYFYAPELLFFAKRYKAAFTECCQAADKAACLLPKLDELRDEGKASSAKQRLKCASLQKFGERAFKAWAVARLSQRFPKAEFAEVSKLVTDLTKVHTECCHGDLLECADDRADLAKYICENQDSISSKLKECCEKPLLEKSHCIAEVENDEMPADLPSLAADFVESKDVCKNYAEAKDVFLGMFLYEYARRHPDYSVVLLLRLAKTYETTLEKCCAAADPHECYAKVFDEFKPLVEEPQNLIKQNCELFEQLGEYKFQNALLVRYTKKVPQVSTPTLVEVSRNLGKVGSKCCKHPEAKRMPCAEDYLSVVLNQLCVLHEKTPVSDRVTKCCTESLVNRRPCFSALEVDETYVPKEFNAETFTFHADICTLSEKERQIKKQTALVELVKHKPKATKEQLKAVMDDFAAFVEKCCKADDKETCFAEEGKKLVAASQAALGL
Description: In additional studies, 200 μg (i.e., 3nmol) of human serum albumin (HSA) was incubated with 400 pmoles of ^14C-labeled tasquinimod at pH 7.4 so that 50% of the drug is protein bound. This solution was then placed in a dialysis chamber opposite an equal volume of a solution containing 8 mg (i.e., 120 nmoles) of drug free HSA at pH 7.4 separated by a membrane which is permeable to unbound free tasquinimod, but impermeable to albumin. The 8 mg of HSA in the initial drug free side was chosen because this amount of albumin can bind 98% of the drug when exposed to 400 pmoles of tasquinimod.

[4] = Drug binding in 10% FBS supplemented media; type: in vitro ADME, bovine; settings: 1 μM in 10% FBS supplemented media
Excerpt: Since tasquinimod binds to both S100A9 and HDAC4 proteins with high affinities and since S100A9 has both an extracellular and intracellular location while HDAC4 in prostate cancer cells is in the cell nucleus, it is important to evaluate whether tasquinimod is capable of entering cells or whether it only associates with extracellular plasma membrane components. To resolve this question, an in vitro approach was taken using three human prostate cancer cells (i.e., CWR-22Rv1, LAPC-4, and LNCaP) and human umbilical vein endothelial (HUVEC) cells. When 1 μM tasquinimod is added to 10% fetal bovine serum (FBS) supplemented media, there is sufficient albumin to bind 80% of the drug so that the protein-free concentration of tasquinimod in such media is only 0.2 μM. Preliminary studies documented that even after 48 hours of exposure of HUVEC and each of the 3 prostate cancer cell lines to 1 μM at confluent cell density, there was < 15% metabolism of the parental tasquinimod drug with the major metabolite being the O-demethylated quinoline compound.

[5] = test system: CWR-22Rv1, LAPC-4, LNCaP and HUVEC cells; experiment: Nuclear drug uptake in 3 prostate cancer lines and HUVEC; type: cell-based, human
Excerpt: To determine the total nuclear concentration of drug (Nt), a modified protocol was needed to allow the rapid lyses of cells and rapid isolation of cell nuclei by differential centrifugation. This could not be accomplished using the usual method of detergent lyses because detergents extract bound drug due to its lipophilicity. Therefore, a detergent free protocol using nitrogen cavitation was developed to rapidly lyse cells and allow the rapid isolation of nuclei via differential centrifugation. Using this cavitation protocol, it was documented that within 1 hour, total nuclear drug concentration (Nt) equals that of the protein-free drug concentration in the media (i.e., 0.2 μM), and that after 4 hours equals PMt (i.e., see Figure 3B, right panel for representative results for the CWR-22Rv1 cells). From 8 hours onward, Nt is more than 10 fold higher than the free and 2 fold higher than the total drug concentration in the media, Figure 3B, right panel. For example at 24 hours post exposure to 1 μM tasquinimod in 10% FBS containing media, the Nt is 2.4 ± 0.3 μM, Figure 3B, right panel. At this 24 hours period, total radioactive drug in isolated nuclei from all 3 prostate cancer lines, as well as HUVEC cells (i.e., nuclear concentration in these 4 lines ranged from 2.2-3.1 μM) was extracted with acetonitrile and the extracts analyzed by HPLC. […] To resolve this, nuclear uptake was determined 24 hours post exposure to 1 μM tasquinimod in serum free media. These studies again documented that nuclear tasquinimod concentration in these 4 cell lines ranged from 2.5-3.5 μM documenting that binding to albumin is not required for cell uptake.
To specifically determine the concentration of tasquinimod within the cell nucleus, 10^7 cells were incubated in 1ml of tissue culture media containing 10% fetal bovine serum (FBS) plus 1μM ^14C-labeled tasquinimod for varying times before the cells were centrifuged rapidly (i.e., 1000xG for 2 min) to remove the drug containing media. The cells were rapidly resuspended in phosphate buffered saline and exposed to pressurized (i.e., 500lbs/sq in) N2 in a nitrogen cavitation devise (i.e., Parr bomb, Parr Instrument Company, Moline, Il) for 5 min before the plasma membranes were lysed by the rapid release of the pressure. This detergent free procedure lyses >98% of the cells without disrupting either mitochondria or lysosomes. […] The radioactivity of this pellet was counted and used to calculate the total amount of tasquinimod associated with 10^7 cell nuclei. To determine the nuclear drug concentration, this total nuclear drug amount was […] the total volume of 10^7 cell nuclei determined from the average diameter of the nuclei determined electronically using Cellometer AutoT4.

Kd [2]: 31 ± 6 µM
initial protein bound tasquinimod released [3]: 65 ± 9%
drug bound by albumin in media [4]: 80%
protein-free concentration in media [4]: 0.2 µM
nuclear concentration, range over 4 lines ([5]; 24 hours, 1 μM in 10% FBS media): 2.2 to 3.1 µM
nuclear tasquinimod concentration, range over 4 cell lines ([5]; 24 hours, 1 μM in serum free media): 2.5 to 3.5 µM
drug present within nuclei that is non-metabolized tasquinimod ([5]; 24 hours, each of 4 cell lines, HPLC): > 95%
intracellular drug concentration ([5]; exposure of cancer and endothelial cells to 0.5-1μM): 2 to 3 µM
SMILES: COc1cccc2c1c(O)c(C(=O)N(C)c1ccc(C(F)(F)F)cc1)c(=O)n2C [Tasquinimod]
sprouting of HUVEC cells in 3-D culture ([1]; 1μM, 5 days co-treatment with conditioned media from fibroblasts): Lack of sprouting
IC50 ([1]; Homo sapiens, HUVEC, 3D-HUVEC sprouting assay, read-out: IC50 (concentration of drug which inhibits by 50% the endothelial sprouting)): ~0.5 µM
